This is an account of results in US11759455B2, “Substituted 1H-imidazo[4,5-b]pyridin-2(3H)-ones and their use as GLUN2B receptor modulators” (JANSSEN PHARMACEUTICA NV, priority 2016, dated 2023).

Broadly, the IC50 is the concentration at which inhibition is half-maximal.

The target of this assay is T1, human GluN1/GluN2B NMDA receptors (Homo sapiens, UniProt Q13224).
T1 construct: expressed in transfected cells
T1 sequence (Q13224 27-1484, other chains not shown): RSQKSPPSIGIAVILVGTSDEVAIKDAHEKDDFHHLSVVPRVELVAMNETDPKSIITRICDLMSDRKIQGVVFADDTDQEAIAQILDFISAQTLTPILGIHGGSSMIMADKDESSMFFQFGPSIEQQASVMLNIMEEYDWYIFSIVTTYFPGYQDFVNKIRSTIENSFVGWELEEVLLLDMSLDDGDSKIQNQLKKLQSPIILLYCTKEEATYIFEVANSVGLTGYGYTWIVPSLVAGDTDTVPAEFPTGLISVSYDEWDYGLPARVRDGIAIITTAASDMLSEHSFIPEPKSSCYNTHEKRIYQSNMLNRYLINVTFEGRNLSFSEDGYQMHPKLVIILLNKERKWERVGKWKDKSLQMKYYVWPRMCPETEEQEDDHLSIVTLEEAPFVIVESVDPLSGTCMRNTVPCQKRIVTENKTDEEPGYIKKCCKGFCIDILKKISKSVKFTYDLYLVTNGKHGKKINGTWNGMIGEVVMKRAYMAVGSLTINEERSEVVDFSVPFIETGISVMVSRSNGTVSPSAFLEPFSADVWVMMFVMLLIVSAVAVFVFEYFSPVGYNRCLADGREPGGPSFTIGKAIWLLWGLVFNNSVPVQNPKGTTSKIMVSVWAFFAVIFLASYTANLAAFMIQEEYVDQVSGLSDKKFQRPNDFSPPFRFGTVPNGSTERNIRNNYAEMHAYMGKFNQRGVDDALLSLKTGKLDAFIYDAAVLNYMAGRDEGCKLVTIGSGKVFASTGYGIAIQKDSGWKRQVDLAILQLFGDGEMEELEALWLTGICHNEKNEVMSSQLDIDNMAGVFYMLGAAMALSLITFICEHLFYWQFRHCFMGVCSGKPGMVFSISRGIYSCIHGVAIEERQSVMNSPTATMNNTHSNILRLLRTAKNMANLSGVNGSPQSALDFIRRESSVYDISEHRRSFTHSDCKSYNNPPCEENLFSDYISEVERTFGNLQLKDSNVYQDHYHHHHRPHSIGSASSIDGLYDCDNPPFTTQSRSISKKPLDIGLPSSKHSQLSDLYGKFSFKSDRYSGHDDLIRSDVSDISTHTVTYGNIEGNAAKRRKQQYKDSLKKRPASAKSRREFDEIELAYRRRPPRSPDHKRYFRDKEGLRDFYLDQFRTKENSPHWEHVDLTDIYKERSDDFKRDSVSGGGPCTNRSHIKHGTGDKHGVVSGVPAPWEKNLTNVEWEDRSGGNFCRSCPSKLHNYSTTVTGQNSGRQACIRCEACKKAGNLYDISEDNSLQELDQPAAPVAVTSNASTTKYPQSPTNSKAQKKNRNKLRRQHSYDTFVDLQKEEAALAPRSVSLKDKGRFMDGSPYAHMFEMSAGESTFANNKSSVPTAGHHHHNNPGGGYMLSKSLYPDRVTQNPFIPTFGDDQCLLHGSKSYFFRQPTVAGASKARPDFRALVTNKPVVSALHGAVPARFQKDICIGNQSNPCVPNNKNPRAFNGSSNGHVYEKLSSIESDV
The assay is described as follows: Cell-based calcium flux (FLIPR) assay on cloned human NR1/NR2B ion channels expressed in mammalian cells (standard and HTS buffer variants).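 Further: stable Tet-On inducible cell line, Ca2+ influx triggered by glutamate at about EC40 plus 10 µM glycine, fluorescent dye read-out over 5 min, normalized to control wells.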 The note with it: standard assay buffer (0.5 mM MgCl2 in dye loading buffer; 137 mM NaCl, 4 mM KCl in assay buffer), human GluN1/GluN2B, read-out: NR2B IC50 (μM) standard assay. (Calcium flux is commonly read through the fluorescence of an indicator in the cells.)
For `Cc1nnc(Cn2c(=O)n(C)c3ncc(-c4ccc(C(F)(F)F)s4)cc32)o1` [Example 567, 3-Methyl-1-[(5-methyl-1,3,4-oxadiazol-2-yl)methyl]-6-[5-(trifluoromethyl)-2-thienyl]imidazo[4,5-b]pyridin-2-one], the IC50 stood at 0.146 µM.
As to `Cn1c(=O)n(Cc2csnn2)c2cc(-c3ccc(C(F)(F)F)s3)cnc21` [Example 568, 3-Methyl-1-(thiadiazol-4-ylmethyl)-6-[5-(trifluoromethyl)-2-thienyl]imidazo[4,5-b]pyridin-2-one], the IC50 is 0.305 µM.
`Cc1noc(Cn2c(=O)n(C)c3ncc(-c4ccc(C(F)(F)F)s4)cc32)n1` [Example 569, 3-Methyl-1-[(3-methyl-1,2,4-oxadiazol-5-yl)methyl]-6-[5-(trifluoromethyl)-2-thienyl]imidazo[4,5-b]pyridin-2-one]: the IC50 was found to be 0.412 µM.
As to `Cc1cc(Cn2c(=O)n(C)c3ncc(-c4ccc(C(F)(F)F)s4)cc32)no1` [Example 570, 3-Methyl-1-[(5-methylisoxazol-3-yl)methyl]-6-[5-(trifluoromethyl)-2-thienyl]imidazo[4,5-b]pyridin-2-one], the IC50 is 0.139 µM.
Take `Cc1cc(Cn2c(=O)n(C)c3ncc(-c4ccc(F)c(C)c4F)cc32)no1` [Example 571, 6-(2,4-Difluoro-3-methyl-phenyl)-3-methyl-1-[(5-methylisoxazol-3-yl)methyl]imidazo[4,5-b]pyridin-2-one]: the IC50 came out at 0.037 µM.
To `Cc1c(F)ccc(-c2cnc3c(c2)n(Cc2cnn(C)c2)c(=O)n3C)c1F` [Example 572, 6-(2,4-Difluoro-3-methyl-phenyl)-3-methyl-1-[(1-methylpyrazol-4-yl)methyl]imidazo[4,5-b]pyridin-2-one] belongs 0.15 µM; to `Cc1noc(Cn2c(=O)n(C)c3ncc(-c4ccc(F)c(C)c4F)cc32)n1` [Example 573, 6-(2,4-Difluoro-3-methyl-phenyl)-3-methyl-1-[(3-methyl-1,2,4-oxadiazol-5-yl)methyl]imidazo[4,5-b]pyridin-2-one], 0.043 µM.
On to `Cc1c(F)ccc(-c2cnc3c(c2)n(Cc2cn(C)nn2)c(=O)n3C)c1F` [Example 574, 6-(2,4-Difluoro-3-methyl-phenyl)-3-methyl-1-[(1-methyltriazol-4-yl)methyl]imidazo[4,5-b]pyridin-2-one], for which the IC50 stood at 0.046 µM.
Regarding `Cc1nnc(Cn2c(=O)n(C)c3ncc(-c4ccc(F)c(C)c4F)cc32)o1` [Example 575, 6-(2,4-Difluoro-3-methyl-phenyl)-3-methyl-1-[(5-methyl-1,3,4-oxadiazol-2-yl)methyl]imidazo[4,5-b]pyridin-2-one], the IC50 was 0.028 µM.
For the compound `Cc1c(F)ccc(-c2cnc3c(c2)n(Cc2csnn2)c(=O)n3C)c1F` [Example 576, 6-(2,4-Difluoro-3-methyl-phenyl)-3-methyl-1-(thiadiazol-4-ylmethyl)imidazo[4,5-b]pyridin-2-one], the IC50 is 0.05 µM.
To `CN(CCF)C(=O)Cn1c(=O)n(C)c2ncc(-c3ccc(C(F)(F)F)s3)cc21` [Example 577, N-(2-Fluoroethyl)-N-methyl-2-[3-methyl-2-oxo-6-[5-(trifluoromethyl)-2-thienyl]imidazo[4,5-b]pyridin-1-yl]acetamide] belongs 0.064 µM; to `O=C(Cn1c(=O)[nH]c2ncc(-c3ccc(C(F)(F)F)s3)cc21)N1CC(F)C1` [Example 578, 1-[2-(3-Fluoroazetidin-1-yl)-2-oxo-ethyl]-6-[5-(trifluoromethyl)-2-thienyl]-3H-imidazo[4,5-b]pyridin-2-one], 0.014 µM.
For the compound `Cc1c(F)ccc(-c2cnc3[nH]c(=O)n(CC(=O)N4CCC4)c3c2)c1F` [Example 579, 1-[2-(Azetidin-1-yl)-2-oxo-ethyl]-6-(2,4-difluoro-3-methyl-phenyl)-3H-imidazo[4,5-b]pyridin-2-one], the IC50 amounted to 0.015 µM.
With `Cc1cccc(-c2cnc3[nH]c(=O)n(CC(=O)N4CC(F)(F)C4)c3c2)c1` [Example 580, 1-[2-(3,3-Difluoroazetidin-1-yl)-2-oxo-ethyl]-6-(m-tolyl)-3H-imidazo[4,5-b]pyridin-2-one] the figure was 0.026 µM; with `Cc1cccc(-c2cnc3c(c2)n(CC(=O)N2CC(F)(F)C2)c(=O)n3C)c1` [Example 581, 1-[2-(3,3-Difluoroazetidin-1-yl)-2-oxo-ethyl]-3-methyl-6-(m-tolyl)imidazo[4,5-b]pyridin-2-one], 0.032 µM.
With `Cc1cccc(-c2cnc3c(c2)n(CC(=O)N(C)C)c(=O)n3C)c1` [Example 583, N,N-Dimethyl-2-[3-methyl-6-(m-tolyl)-2-oxo-imidazo[4,5-b]pyridin-1-yl]acetamide] the figure was 0.051 µM.
With `Cn1c(=O)n(CC(=O)N2CCC2)c2cc(-c3ccc(F)c(C(F)F)c3)cnc21` [Example 584, 1-[2-(Azetidin-1-yl)-2-oxo-ethyl]-6-[3-(difluoromethyl)-4-fluoro-phenyl]-3-methyl-imidazo[4,5-b]pyridin-2-one], the IC50 came to 0.024 µM.
As for `Cn1c(=O)n(CC(=O)N2CC(F)C2)c2cc(-c3ccc(F)c(C(F)F)c3)cnc21` [Example 585, 6-[3-(Difluoromethyl)-4-fluoro-phenyl]-1-[2-(3-fluoroazetidin-1-yl)-2-oxo-ethyl]-3-methyl-imidazo[4,5-b]pyridin-2-one], the IC50 was 0.018 µM.
Regarding `Cn1c(=O)n(CC(=O)N2CC(F)(F)C2)c2cc(-c3ccc(F)c(C(F)F)c3)cnc21` [Example 586, 1-[2-(3,3-Difluoroazetidin-1-yl)-2-oxo-ethyl]-6-[3-(difluoromethyl)-4-fluoro-phenyl]-3-methyl-imidazo[4,5-b]pyridin-2-one], the IC50 turned out to be 0.051 µM.
With `CN(C)C(=O)Cn1c(=O)n(C)c2ncc(-c3ccc(F)c(OC(F)F)c3)cc21` [Example 587, 2-[6-[3-(Difluoromethoxy)-4-fluoro-phenyl]-3-methyl-2-oxo-imidazo[4,5-b]pyridin-1-yl]-N,N-dimethyl-acetamide] the figure was 0.035 µM; with `Cn1c(=O)n(CC(=O)N2CCC2)c2cc(-c3ccc(F)c(OC(F)F)c3)cnc21` [Example 588, 1-[2-(Azetidin-1-yl)-2-oxo-ethyl]-6-[3-(difluoromethoxy)-4-fluoro-phenyl]-3-methyl-imidazo[4,5-b]pyridin-2-one], 0.023 µM.
For the compound `Cn1c(=O)n(CC(=O)N2CC(F)C2)c2cc(-c3ccc(F)c(OC(F)F)c3)cnc21` [Example 589, 6-[3-(Difluoromethoxy)-4-fluoro-phenyl]-1-[2-(3-fluoroazetidin-1-yl)-2-oxo-ethyl]-3-methyl-imidazo[4,5-b]pyridin-2-one], the IC50 was 0.028 µM.
To `Cn1c(=O)n(CC(=O)N2CC(F)(F)C2)c2cc(-c3ccc(F)c(OC(F)F)c3)cnc21` [Example 590, 1-[2-(3,3-Difluoroazetidin-1-yl)-2-oxo-ethyl]-6-[3-(difluoromethoxy)-4-fluoro-phenyl]-3-methyl-imidazo[4,5-b]pyridin-2-one] belongs 0.025 µM; to `CN(C)C(=O)Cn1c(=O)n(C)c2ncc(-c3ccc(Cl)c(OC(F)F)c3)cc21` [Example 591, 2-[6-[4-Chloro-3-(difluoromethoxy)phenyl]-3-methyl-2-oxo-imidazo[4,5-b]pyridin-1-yl]-N,N-dimethyl-acetamide], 0.034 µM.
Consider `Cn1c(=O)n(CC(=O)N2CCC2)c2cc(-c3ccc(Cl)c(OC(F)F)c3)cnc21` [Example 592, 1-[2-(Azetidin-1-yl)-2-oxo-ethyl]-6-[4-chloro-3-(difluoromethoxy)phenyl]-3-methyl-imidazo[4,5-b]pyridin-2-one], for which the IC50 was determined as 0.071 µM.
As to `Cn1c(=O)n(CC(=O)N2CC(F)C2)c2cc(-c3ccc(Cl)c(OC(F)F)c3)cnc21` [Example 593, 6-[4-Chloro-3-(difluoromethoxy)phenyl]-1-[2-(3-fluoroazetidin-1-yl)-2-oxo-ethyl]-3-methyl-imidazo[4,5-b]pyridin-2-one], the IC50 worked out at 0.053 µM.
With `Cn1c(=O)n(CC(=O)N2CC(F)(F)C2)c2cc(-c3ccc(Cl)c(OC(F)F)c3)cnc21` [Example 594, 6-[4-Chloro-3-(difluoromethoxy)phenyl]-1-[2-(3,3-difluoroazetidin-1-yl)-2-oxo-ethyl]-3-methyl-imidazo[4,5-b]pyridin-2-one], the IC50 came out at 0.082 µM.
`Cc1c(F)ccc(-c2cnc3c(c2)n(CC(=O)N2CCC2)c(=O)n3CF)c1F` [Example 595, 1-[2-(Azetidin-1-yl)-2-oxo-ethyl]-6-(2,4-difluoro-3-methyl-phenyl)-3-(fluoromethyl)imidazo[4,5-b]pyridin-2-one]: the IC50 worked out at 0.974 µM.
With `CN(C)C(=O)Cn1c(=O)n(CF)c2ncc(-c3ccc(C(F)(F)F)s3)cc21` [Example 596, 2-[3-(Fluoromethyl)-2-oxo-6-[5-(trifluoromethyl)-2-thienyl]imidazo[4,5-b]pyridin-1-yl]-N,N-dimethyl-acetamide] the figure was 0.066 µM.
Consider `O=C(Cn1c(=O)n(CF)c2ncc(-c3ccc(C(F)(F)F)s3)cc21)N1CC(F)C1` [Example 597, 1-[2-(3-Fluoroazetidin-1-yl)-2-oxo-ethyl]-3-(fluoromethyl)-6-[5-(trifluoromethyl)-2-thienyl]imidazo[4,5-b]pyridin-2-one], for which the IC50 was found to be 0.063 µM.
As to `O=C(Cn1c(=O)n(CF)c2ncc(-c3ccc(C(F)(F)F)s3)cc21)N1CCCC1` [Example 598, 3-(Fluoromethyl)-1-(2-oxo-2-pyrrolidin-1-yl-ethyl)-6-[5-(trifluoromethyl)-2-thienyl]imidazo[4,5-b]pyridin-2-one], the IC50 was determined as 0.173 µM.
To `Cc1c(F)ccc(-c2cnc3c(c2)n(CC(=O)N(C)C)c(=O)n3CF)c1F` [Example 599, 2-[6-(2,4-Difluoro-3-methyl-phenyl)-3-(fluoromethyl)-2-oxo-imidazo[4,5-b]pyridin-1-yl]-N,N-dimethyl-acetamide] belongs 0.025 µM; to `Cc1c(F)ccc(-c2cnc3c(c2)n(CC(=O)N2CC(F)C2)c(=O)n3CF)c1F` [Example 600, 6-(2,4-Difluoro-3-methyl-phenyl)-1-[2-(3-fluoroazetidin-1-yl)-2-oxo-ethyl]-3-(fluoromethyl)imidazo[4,5-b]pyridin-2-one], 0.017 µM.
